Source: patent publication US8323673B2, “Concentrated, non-foaming solution of quaternary ammonium compounds and methods of use” (University of Arkansas, priority 1996, dated 2012)

Experiments:
Escherichia coli O157:H7 [1] = test system: Escherichia coli O157:H7
L. monocytogenes [2] = experiment: Inhibition of attachment of Listeria monocytogenes to chicken skin
Text: The steps of Example 3 were followed except that L. monocytogenes was used to inoculate the chicken skin and the media in the plastic bag used in the Stomacher 400 contained 0.1% peptone.

Arcobacter butzleri = experiment: MBC, macrodilution broth method; assay type: cell-based; details: microaerophilic, 37° C., 48 hours
Procedure: (§1) Experiments were conducted by microaerophilic incubation at 37° C. for 48 hours. An aliquot of each dilution was pour plated in agar and incubated in microaerophilic conditions at 37° C. for 48 hours. MBCs were determined as the lowest dilution with no growth.

Campylobacter jejuni = experiment: MBC, macrodilution broth method; assay type: cell-based; details: microaerophilic, 37° C., 48 hours
Procedure: as §1

L. monocytogenes [3] = experiment: Reduction of viable Listeria monocytogenes attached to chicken skin; details: CPC 2000 ppm or higher
Text: The steps of Example 2 were followed except that L. monocytogenes was used to inoculate the chicken skin and the media in the plastic bag used in the Stomacher 400 contained 0.1% peptone.

Escherichia coli O157:H7 [4] = test system: Escherichia coli O157:H7; remark: listed apart in the source
E. coli = experiment: Spraying whole chicken carcasses with a commercial sprayer; design: species or system Escherichia coli; details: for BACTERIA PRESENT, 5,000 ppm CPC: Petrifilm, spray 20 seconds at 60 psi
Procedure: (§2) These experiments tested the effect that spraying QACs on whole chicken carcasses using a commercial sprayer would have on the reduction of viable bacteria. The bacterial inoculating solutions were made as follows: E. coli (ATTC #25922) was grown in brain heart infusion broth (BHI) for 20-24 h and then diluted to a 1:1000 concentration by adding 0.5 ml of E. coli culture to 500 ml of physiological saline solution (PSS). S. typhimurium was grown in BHI for 20-24 h and then diluted to a 1:5000 concentration by adding 0.1 ml of S. typhimurium culture to 500 ml of physiological saline solution (PSS). […] Prechill chicken carcasses were obtained from a local poultry processing plant for each trial. The carcasses were placed on a shackle line and 1 ml of the bacterial inoculating solution was sprayed on the breast of the carcass, and 1 ml was sprayed on the back. The bacteria were allowed to attach for 30 min at room temperature. After attachment the carcasses were rinsed on the shackle line with tap water for 20 seconds. The carcasses were divided into groups of ten. […] In the S. typhimurium tests, there was also a group that was not sprayed after inoculation to evaluate the effect of the spray.
(§3) For all of the bacteria, one group of carcasses were treated with the Johnson™ washer for 20 seconds at 60 psi with 35 cups of tap water. After the rinse, the carcasses were allowed to set for 90 seconds, and then rinsed with 20 cups of tap water for 20 seconds at 80 psi. This rinse cycle was repeated either two or three times. The interval of each rinse was also 90 seconds. […] This rinse cycle was repeated either two or three times.
(§4) After treatment the carcasses were placed in plastic bags and 100 ml of 0.1% buffered peptone water (BPW) was added to each bag. The bags were mechanically shaken and the rinse collected for most probable number (MPN) technique. Petrifilm™ was also employed for evaluation of total aerobic plate counts (TPC). Preexisting (not inoculated) C. jejuni was enumerated by the MPN technique and E. coli by Petrifilm™.

Escherichia coli O157:H7 [5] = test system: Escherichia coli O157:H7; remark: listed apart in the source
[6] = Ames assay for mutagenicity; assay type: cell-based
Procedure: The present invention has an important application in the food processing industry, as well as for home and institutional food preparation. QACs are readily available and the cost of carrying out the method of the present invention is not expensive as compared to existing antimicrobial processes. […] A range of concentrations of QACs are effective in preventing broad spectrum microbial growth on food products. QACs are tested by the Ames assay for mutagenicity.

C. jejuni = experiment: Spraying whole chicken carcasses with a commercial sprayer; design: species or system Campylobacter jejuni; details: for BACTERIA PRESENT, 5,000 ppm CPC: preexisting C. jejuni, MPN, spray 20 seconds at 60 psi
Procedure: as §2, §3, §4

Salmonella = experiment: Another spraying experiment on chicken carcasses; details: 90 second spraying of chicken carcasses with 5,000 ppm CPC
S. typhimurium [7] = experiment: Spraying whole chicken carcasses with a commercial sprayer; design: species or system Salmonella typhimurium
Procedure: as §2, §3, §4

S. typhimurium [8] = experiment: Concentration and time study: reduction of viable S. typhimurium on chicken skin; design: species or system Salmonella typhimurium; details: CPC 4000 and 8000 ppm in 5% glycerin-PBS, contact times as low as 3 min
Procedure: CPC in the glycerin-PBS mixture. […] Salmonella storage was on TSA. Inoculum preparation was performed as follows.
Culture plates with the skin pieces were incubated (30 min., 35° C.), and then the incubating solution was removed by aspiration. The inoculated skins were treated with 5 ml of the test solution. […] A corner of the bag was aseptically cut and the entire contents were transferred to a sterile centrifuge tube, which was then spun for 10 min (12,000 rpm, 20° C.). The pellet was resuspended in 5 ml 0.1% (w/v) peptone/water.

CCCCCCCCCCCCCCCC[n+]1ccccc1 [CPC, cetylpyridinium chloride]
reduction in attached bacteria (Escherichia coli O157:H7 [1]): 62-64% | reduction of attached bacteria (L. monocytogenes [2]; 50 ppm CPC): 82% | reduction of attached bacteria (L. monocytogenes [2]; 100 ppm CPC): 92% | reduction of attached bacteria (L. monocytogenes [2]; 500 and 1000 ppm CPC): 100% | CPC Vs Arcobacter Butzleri, growth in MBC test (Arcobacter butzleri; CPC 0.50 μg/mL): + | CPC Vs Arcobacter Butzleri, growth in MBC test (Arcobacter butzleri; CPC 0.98 μg/mL): + | CPC Vs Arcobacter Butzleri, growth in MBC test (Arcobacter butzleri; CPC 1.96 μg/mL): + | CPC Vs Arcobacter Butzleri, growth in MBC test (Arcobacter butzleri; CPC 3.91 μg/mL): + | CPC Vs Arcobacter Butzleri, growth in MBC test (Arcobacter butzleri; CPC 7.81 μg/mL): + | CPC Vs Arcobacter Butzleri, growth in MBC test (Arcobacter butzleri; CPC 15.63 μg/mL): + | CPC Vs Arcobacter Butzleri, growth in MBC test (Arcobacter butzleri; CPC 31.25 μg/mL): + | CPC Vs Arcobacter Butzleri, growth in MBC test (Arcobacter butzleri; CPC 62.5 μg/mL): − | CPC Vs Arcobacter Butzleri, growth in MBC test (Arcobacter butzleri; CPC 125 μg/mL): − | CPC Vs Arcobacter Butzleri, growth in MBC test (Arcobacter butzleri; CPC […]): + | CPC Vs Campylobacter Jejuni, growth in MBC test (Campylobacter jejuni; CPC 0.50 μg/mL): + | CPC Vs Campylobacter Jejuni, growth in MBC test (Campylobacter jejuni; CPC 0.98 μg/mL): + | CPC Vs Campylobacter Jejuni, growth in MBC test (Campylobacter jejuni; CPC 1.96 μg/mL): + | CPC Vs Campylobacter Jejuni, growth in MBC test (Campylobacter jejuni; CPC 3.91 μg/mL): + | CPC Vs Campylobacter Jejuni, growth in MBC test (Campylobacter jejuni; CPC 7.81 μg/mL): − | CPC Vs Campylobacter Jejuni, growth in MBC test (Campylobacter jejuni; CPC 15.63 μg/mL): − | CPC Vs Campylobacter Jejuni, growth in MBC test (Campylobacter jejuni; CPC 31.25 μg/mL): − | CPC Vs Campylobacter Jejuni, growth in MBC test (Campylobacter jejuni; CPC 62.5 μg/mL): − | CPC Vs Campylobacter Jejuni, growth in MBC test (Campylobacter jejuni; CPC 125 μg/mL): − | CPC Vs Campylobacter Jejuni, growth in MBC test (Campylobacter jejuni; CPC […]): + | reduction in L. monocytogenes (L. monocytogenes [3]): > 4 log10 | reduction in the number of bacteria attached to the beef (Escherichia coli O157:H7 [4]): 76% | Reduction in Log10 (water control vs 5,000 ppm CPC) (E. coli; Trial 1): 1.588 Log10 | BACTERIA PRESENT, 5,000 ppm CPC (E. coli; Trial 1): 0.386 | Reduction in Log10 (water control vs 5,000 ppm CPC) (E. coli; Trial 2): 0.920 Log10 | BACTERIA PRESENT, 5,000 ppm CPC (E. coli; Trial 2): 0.460 | number of attached bacteria reduced to (Escherichia coli O157:H7 [5]): below 0.1% | mutagenicity by the Ames assay [6]: nonmutagenic | Reduction in Log10 (water control vs 5,000 ppm CPC) (C. jejuni; Trial 1): 2.613 Log10 | BACTERIA PRESENT, 5,000 ppm CPC (C. jejuni; Trial 1): 0 | Reduction in Log10 (water control vs 5,000 ppm CPC) (C. jejuni; Trial 2): 2.014 Log10 | BACTERIA PRESENT, 5,000 ppm CPC (C. jejuni; Trial 2): 0.629 | reduction of Salmonella (Salmonella): 3.3 log10 | Reduction, No Spray vs. CPC Treatment (S. typhimurium [7]; trial 1 (Dec. 02, 1996)): 1.047 Log10 CFUs | Reduction, Spray vs. CPC Treatment (S. typhimurium [7]; trial 1 (Dec. 02, 1996)): 0.744 Log10 CFUs | S. typhimurium, 5,000 ppm CPC (S. typhimurium [7]; trial 1 (Dec. 02, 1996)): 4.295 Log10 CFUs | Reduction, No Spray vs. CPC Treatment (S. typhimurium [7]; trial 2 (Dec. 09, 1996)): 3.327 Log10 CFUs | Reduction, Spray vs. CPC Treatment (S. typhimurium [7]; trial 2 (Dec. 09, 1996)): 2.955 Log10 CFUs | S. typhimurium, 5,000 ppm CPC (S. typhimurium [7]; trial 2 (Dec. 09, 1996)): 1.977 Log10 CFUs | Reduction, No Spray vs. CPC Treatment (S. typhimurium [7]; trial 3 (Dec. 16, 1996)): 2.395 Log10 CFUs | Reduction, Spray vs. CPC Treatment (S. typhimurium [7]; trial 3 (Dec. 16, 1996)): 2.548 Log10 CFUs | S. typhimurium, 5,000 ppm CPC (S. typhimurium [7]; trial 3 (Dec. 16, 1996)): 2.606 Log10 CFUs | Reduction, No Spray vs. CPC Treatment (S. typhimurium [7]; trial 4 (Jan. 27, 1997)): 3.69 Log10 CFUs | Reduction, Spray vs. CPC Treatment (S. typhimurium [7]; trial 4 (Jan. 27, 1997)): 3.45 Log10 CFUs | S. typhimurium, 5,000 ppm CPC (S. typhimurium [7]; trial 4 (Jan. 27, 1997)): 1.03 Log10 CFUs | Reduction, No Spray vs. CPC Treatment (S. typhimurium [7]; trial 5 (Feb. 03, 1997)): 2.76 Log10 CFUs | Reduction, Spray vs. CPC Treatment (S. typhimurium [7]; trial 5 (Feb. 03, 1997)): 2.79 Log10 CFUs | S. typhimurium, 5,000 ppm CPC (S. typhimurium [7]; trial 5 (Feb. 03, 1997)): 1.426 Log10 CFUs | reduction of Salmonella by CPC in the wash water (S. typhimurium [7]; wash water of the S. typhimurium runs): 1 log | decontamination (Salmonella reduction) on chicken skin (S. typhimurium [8]): ~5 log10
